Reference: ChEMBL document CHEMBL3988442, “University of Dundee, Small-Polar-MMV Screening Library” (2021)

Tested on: Plasmodium falciparum
Test: Calibr Malaria Delayed Death Assay SOP
Format: functional, organism-based
Settings: for IC50: Plasmodium falciparum

Row | SMILES | pIC50 | IC50 [nM]
1 | CN1CCC(C2CCN(Cc3cccc(-n4cccn4)c3)CC2)C1 (stereo not drawn) | 6.139 | 656
2 | CN(CCO)Cc1cc(Cl)ccc1OCC(O)CN1CCCCCC1 (stereo not drawn) | 6.095 | 765
3 | Brc1cccc(C2(CNCc3cc[nH]c3)CCOCC2)c1 | 6.135 | 829
4 | O=C(NC1CCN(CC2CCCC2)C1)N1CCC(OCC2CC2)CC1 (stereo not drawn) | 5.978 | 966
5 | Fc1cccc(C(NCc2ncc[nH]2)c2ccccn2)c1 (stereo not drawn) | 6.434 | 351
6 | CC(NCC1CCN(CCO)CC1)c1ccc(Cl)cc1 (stereo not drawn) | 6.133 | 671
7 | Cc1cc(Br)cnc1NCCN1CCC(N(C)C)CC1 | 6.294 | 472
8 | Cc1ccc(CN(c2cc(C)nc3nc(C(F)(F)F)nn23)C2CC2)cc1 | 6.41 | 282
9 | CCN1CCN(C[C@@H]2CN(c3ncc(Cl)cc3F)C[C@@H]2CO)CC1 | 6.156 | 651
10 | Br.CCOc1ccc(Br)cc1C1CCCN1 (stereo not drawn) | 6.082 | 534
11 | CC(NCCc1nccn1Cc1ccccc1)c1cccs1 (stereo not drawn) | 5.98 | 1290
12 | Cn1cc(CN2CCCC(CCc3ccc(F)cc3)C2)cn1 (stereo not drawn) | 5.962 | 1060
13 | Fc1cccc(CN2C[C@@H]3CN(Cc4ccccn4)C[C@@H]3C2)c1.O=C(O)C(F)(F)F.O=C(O)C(F)(F)F | 6.169 | 531
14 | CC(C)C(=O)N1CCCC2(CCCN2CC2CCCC2)C1.O=C(O)C(F)(F)F (stereo not drawn) | 5.828 | 1150
15 | Cc1ccc(C2(CN3CCN(Cc4cnc(C)n4C)CC3)CC2)cc1.Cl | 6.615 | 255
16 | COc1cccc(CNCc2cccc(Cl)c2)c1O | 6.064 | 914
17 | Cc1cc(Cl)ccc1S(=O)(=O)NCC(C)N1CCN(C)CC1 (stereo not drawn) | 6.144 | 444
18 | CNC(=O)CCN(C)CC1(c2ccc(Br)cc2)CC1 | 6.438 | 340
19 | Fc1ccccc1Sc1ccccc1CNC1=NCCN1.I | 5.863 | 1610
20 | Cc1c(C)n(CC(O)CN2CCN(CCO)CC2)c2c(Cl)cccc12.Cl (stereo not drawn) | 6.075 | 950
21 | Cc1ccsc1CN(CCCN(C)C)Cc1ccccn1 | 6.353 | 409
22 | Cc1ccccc1CN(CCN(C)C)Cc1ccc(S(C)(=O)=O)cc1 | 5.997 | 890
23 | Cc1nc(-c2ccc(F)c(F)c2)cc(C2CCNCC2)n1.Cl | 6.123 | 797

Row | SMILES | pIC50 | IC50 [nM]
24 | COc1ccccc1C1(NCc2c(C)nc3c(C)cccn23)CCCC1.Cl | 6.178 | 748
25 | CCC1CN(C(=O)c2ccc(Cl)cc2O)CCN1C(C)C (stereo not drawn) | 5.81 | 1130
26 | COc1c(C)cnc(CN2CCC(N(C)C(C)C(N)=O)CC2)c1C (stereo not drawn) | 6.018 | 876
27 | CC(=O)N(c1ccc(C)cc1)c1nc(CN2CCCC(C)C2)cs1 (stereo not drawn) | 5.762 | 1610
28 | CCNc1ccnc(CN2CCCC2C(=O)Nc2nccs2)c1 (stereo not drawn) | 6.462 | 367
29 | CN1CCN(c2ccccc2NC(=O)NCCc2ccccc2)CC1 | 6.032 | 998
30 | CN1CCCC1CNC(=O)CCCOc1cccc(Br)c1 (stereo not drawn) | 5.833 | 1170
31 | CC(C)c1nn(C)c(Cl)c1CNCC(O)c1cccc(F)c1.Cl (stereo not drawn) | 6.252 | 392
32 | Cc1cccnc1CN1CC[C@H](Oc2cccc(F)c2)[C@@](C)(O)C1 | 6.112 | 710
33 | OCCN1CCC(CNCc2ccc(Br)cc2)CC1 | 6.334 | 364
34 | CN(Cc1ccccc1-n1cccn1)C[C@@H]1CCCN2CCCC[C@H]12 | 6.129 | 852
35 | COc1cccc(CNCc2ccc(F)cc2Cl)c1O | 6.118 | 712
36 | Cl.NCC1(c2cccc(Br)c2)CCOCC1 | 6.127 | 705
37 | Cc1cccc(C)c1Nc1noc2c1CN(C(=O)c1cn(C)cn1)CC2 | 6.709 | 190
38 | CCn1ccnc1CN1CCCC(CO)(Cc2cccc(Cl)c2)C1 (stereo not drawn) | 6.076 | 575
39 | Cc1ccc(CN2CCC3(CC2)CCN(Cc2ccoc2)CC3)cc1.O=C(O)C(F)(F)F.O=C(O)C(F)(F)F | 6.821 | 202
40 | Cc1cc(CN2CCC(CNS(=O)(=O)c3ccc(Br)s3)CC2)c(C)o1 | 6.178 | 639
41 | Fc1ccc2c(C3=CCN(Cc4nnc(C5CCC5)o4)CC3)c[nH]c2c1 | 5.905 | 1700
42 | Cc1noc(C)c1CN1C[C@H]2CN(Cc3cccc(F)c3)C[C@H]2C1.O=C(O)C(F)(F)F.O=C(O)C(F)(F)F | 5.762 | 1220
43 | CN[C@@H](C)C(=O)N(Cc1cccc(C)c1)Cc1ccccc1OC | 6.428 | 316
44 | CCC(NCc1cccc(Cl)c1)c1ccccc1OCC(=O)NC (stereo not drawn) | 6.073 | 1370
45 | CN1CCCC(c2cccc(Cc3ccccc3Cl)n2)C1 (stereo not drawn) | 6.022 | 1020
46 | CN(CCO)C[C@@H]1CN(Cc2ccccc2-c2ccccc2)C[C@@H]1CO | 6.276 | 611

Row | SMILES | pIC50 | IC50 [nM]
47 | CC(O)CN1CCC(CNCc2cccc(C(F)(F)F)c2)CC1 (stereo not drawn) | 6.332 | 751
48 | COc1cccc(CN2CCCC(Nc3cccc(F)c3)C2)c1O (stereo not drawn) | 6.314 | 810
49 | COc1cc(CNCC(O)c2ccc(F)c(F)c2)cc2c1OCO2 (stereo not drawn) | 6.45 | 460
50 | CN(CCO)CC1COCCN1C(=O)C1(c2cccs2)CCCC1.O=CO (stereo not drawn) | 6.007 | 573
51 | CC(O)CN1CCC(CNCc2cccc(Br)c2)CC1 (stereo not drawn) | 6.286 | 528
52 | Clc1cccc(C(NCc2ncc[nH]2)c2ccccn2)c1 (stereo not drawn) | 6.581 | 225
53 | CC(C)[C@@H]1CN(C(=O)C2(c3ccccc3)CCN(C)CC2)C[C@H]1N(C)C | 6.113 | 710
54 | CCOc1ccc(Cl)cc1C1CCCCN1.Cl (stereo not drawn) | 6.229 | 612
55 | Cc1oc(-c2cc(F)cc(F)c2)nc1CN1C[C@@H](C)NC[C@@H]1C | 5.947 | 719
56 | CCOc1ccc(Br)cc1C1CCCCN1.Cl (stereo not drawn) | 6.053 | 737
57 | CCC1CN(CC(=O)NCCN2CCCCC2)c2ccccc2S1 (stereo not drawn) | 6.107 | 937
58 | Cc1cccc(CN2CCC(Cc3ccccc3F)CC2)n1 | 6.094 | 776
59 | Cc1cccc(OC(C)C(=O)NCC2(N(C)C)CCCC2)c1 (stereo not drawn) | 6.11 | 760
60 | Cc1cccc(Nc2cccc(C3CCCN(Cc4ncc[nH]4)C3)n2)n1 (stereo not drawn) | 6.378 | 465
61 | Cc1cc(C[C@@H]2CCC[C@H]2NCc2c[nH]nc2-c2ccccc2)on1.O=C(O)CC(O)(CC(=O)O)C(=O)O | 5.845 | 1230
62 | CCc1ccc2nc(NCCCN(CCO)CCO)cc(C)c2c1 | 6.107 | 809
63 | CCN1CCC(CNCc2cc(C)ccc2OC)C1 (stereo not drawn) | 6.037 | 1150
64 | Cc1cc(F)ccc1N1CCC(N2C[C@@H](CN(C)C)[C@@H](CO)C2)CC1 | 6.511 | 314
65 | Cc1nccn1CCCN1CCCC(c2ccccc2)C1 (stereo not drawn) | 6.639 | 234
66 | O=C(CC1CCCC1)NCCNCc1cccc2c1OCCO2 | 6.128 | 938
67 | Cl.Fc1cccc(F)c1Cn1c(C2CCNCC2)cc2cccnc21 | 6.523 | 307
68 | CN(C[C@H]1CN2CC[C@H]1C[C@@H]2CNC(=O)c1ccco1)c1ccccc1 | 5.968 | 1130
69 | CN1CCC(N(Cc2ccco2)S(=O)(=O)c2ccc(Cl)cc2)CC1 | 6.409 | 560

Row | SMILES | pIC50 | IC50 [nM]
70 | Cc1ccc(CN(CCN(C)C)Cc2c(C)nc3sccn23)o1.O=C(O)CC(O)(CC(=O)O)C(=O)O | 6.093 | 506
71 | O=C(O)C(F)(F)F.c1ccc(NC[C@@H]2CCC[C@@H]3CN(Cc4cccnc4)C[C@@H]32)nc1 | 5.946 | 1220
72 | CC(C)n1ncc2c1NC(=O)CC21C(=O)Nc2c(Cl)ccc(Cl)c21 (stereo not drawn) | 5.929 | 1080
73 | CN(C)CCN(Cc1cccnc1)C(=O)c1ccn(-c2ccccc2)n1 | 5.955 | 876
74 | CC(=O)N(c1ccc(F)cc1)c1nc(CN2CCCC2C(C)C)cs1 (stereo not drawn) | 6.177 | 479
75 | O=C(O)C(F)(F)F.O=C(O)C(F)(F)F.c1cncc(N2CCCC3(CCN(CCN4CCCC4)CC3)C2)c1 | 5.977 | 1020
76 | CCN(CC1CN(Cc2nc(C3CC3)no2)CCO1)c1cccnn1 (stereo not drawn) | 5.75 | 1860
77 | O=C(Nc1ccc(OC2CCCC2)cc1)C1CCCN1c1nccs1 (stereo not drawn) | 7.074 | 79.3
78 | CN1CCC2(Cc3ccccc3CN(C(=O)Cc3cccc(Cl)c3)C2)C1 (stereo not drawn) | 6.082 | 836
79 | Cl.Fc1cccc(F)c1Cn1c(C2CCCNC2)cc2cccnc21 (stereo not drawn) | 6.143 | 1050
80 | O=S(=O)(NC[C@H]1C[C@@H]2CCN1C[C@@H]2CN1CCCC1)c1ccc(Cl)cc1 | 5.945 | 1130
81 | COc1cc(C(=O)NCc2ccc3c(c2)CCCN3C)cc(OC)c1Br | 6.846 | 251
82 | CCN(CC)C(CNC(=O)c1c(C)noc1C(C)C)c1ccsc1 (stereo not drawn) | 6.097 | 1360
83 | Cc1cc(F)ccc1-c1ccccc1CC1CNCCNC1=O.Cl (stereo not drawn) | 6.113 | 1190
84 | Cc1ccc(CNC2CC3(CCN(CCO)CC3)c3ccccc32)s1.O=C(O)C(F)(F)F.O=C(O)C(F)(F)F (stereo not drawn) | 6.464 | 322
85 | CN(CCCO)Cc1cc(Cl)ccc1OCC(O)CN1CCCCCC1 (stereo not drawn) | 6.2 | 738
86 | Cc1cnccc1CN1CC[C@H](Oc2cccc(F)c2)[C@@](C)(O)C1 | 5.772 | 1420
87 | Cc1cn2c(n1)C(CNCc1ccc(C)s1)CCC2 (stereo not drawn) | 6.227 | 722
88 | COc1cccc(-n2ccc3nc(N4CCCC4)ncc3c2=O)c1 | 5.801 | 1470
89 | CN1CCCCC1c1ncc2c(n1)CCN(Cc1ccc(F)cc1)C2 (stereo not drawn) | 5.899 | 1280
